# From article PMC11532403 (Signal Transduction and Targeted Therapy, 2024)
# “And” between values parts separate entries of the source, which are not always exact repeats. Equal values may be shown once.
# Tested on: RET-altered solid tumors
# Experiment: Phase 1 trial: anti-tumor efficacy (RECIST 1.1)
# Format: in vivo, human
# Procedure: Radiologic tumor assessments were conducted by computed tomography (CT) or magnetic resonance imaging (MRI) of brain, chest, abdomen, and pelvis at baseline, 4 weeks for the first tumor assessment, then every 8 weeks (± 7 days) for 1 year, and every 12 weeks (± 7 days) thereafter. MTC patients were longitudinally monitored for serum calcitonin and carcinoembryonic antigen (CEA) levels.
# [1] = All patients, 160 mg BID (n = 95)
# [2] = All patients, 200 mg BID (n = 10)
# [3] = All patients, all doses (n = 116)
# [4] = Previously treated, 160 mg BID (n = 58)
# [5] = Previously treated, 200 mg BID (n = 8)
# [6] = Previously treated, all doses (n = 76)
# [7] = RP2D 160 mg BID, MTC, all (n = 23)
# [8] = RP2D 160 mg BID, NSCLC, all (n = 64)
# [9] = RP2D 160 mg BID, PTC, all (n = 7)
# [10] = RP2D, MTC, previously treated (n = 15)
# [11] = RP2D, MTC, treatment-naïve (n = 8)
# [12] = RP2D, NSCLC, previously treated (n = 36)
# [13] = RP2D, NSCLC, treatment-naïve (n = 28)
# [14] = RP2D, PTC, previously treated (n = 6)
smiles,measurement,setting,value
"COc1ccc(CN2C3CC2CN(c2ccc(-c4cc(N5CC(C)(O)C5)cn5ncc(C#N)c45)cn2)C3)cn1 [SY-5007, 6-(3-hydroxy-3-methylazetidin-1-yl)-4-(6-(6-((6-methoxypyridin-3-yl)methyl)-3,6-diazabicyclo[3.1.1]heptan-3-yl)pyridin-3-yl)pyrazolo[1,5-a]pyridine-3-carbonitrile]",Patients with target tumor shrinkage,111/116,95.7%
same,Progressive disease,"All patients, 20 mg QD to 120 mg BID cohorts",0 (0.0) n (%)
same,DCR (95% CI),"All patients, 20 mg QD to 120 mg BID cohorts, 20 mg once daily",100.0 (2.5–100.0) %
same,Median TTR (95% CI),"All patients, 20 mg QD to 120 mg BID cohorts, 20 mg twice daily",6.73 (NE-NE) months
same,DCR (95% CI),"All patients, 20 mg QD to 120 mg BID cohorts, 40 mg twice daily",100.0 (29.2–100.0) %
same,Median TTR (95% CI),"All patients, 20 mg QD to 120 mg BID cohorts, 120 mg twice daily",8.37 (1.18-NE) months
same,DCR (95% CI),[1],94.7 (88.1–98.3) %
same,Median DoR (95% CI),[1],13.0 (12.8-NE) months
same,Median PFS (95% CI),[1],15.4 (13.8-NE) months
same,Median TTR (95% CI),[1],2.79 (2.75–4.63) months
same,ORR (95% CI),[1],58.9 (48.4–68.9) %
same,Partial response,[1],56 (58.9) n (%)
same,Progressive disease,[1],5 (5.3) n (%)
same,Stable disease,[1],34 (35.8) n (%)
same,DCR (95% CI),[2],100.0 (69.2–100.0) %
same,Median TTR (95% CI),[2],1.14 (0.91-NE) months
same,ORR (95% CI),[2],60.0 (26.2–87.8) %
same,Partial response,[2],6 (60.0) n (%)
same,Progressive disease,[2],0 (0.0) n (%)
same,Stable disease,[2],4 (40.0) n (%)
same,DCR (95% CI),[3],95.7 (90.2–98.6) %
same,Median DoR (95% CI),[3],19.9 months and 19.9 (12.8–NE) months
same,Median PFS (95% CI),[3],21.1 months and 21.1 (13.8–NE) months
same,Median TTR (95% CI),[3],2.82 (2.75–4.66) months
same,ORR (95% CI),[3],57.8 (48.2–66.9) %
same,Partial response,[3],67 (57.8) n (%)
same,Progressive disease,[3],5 (4.3) n (%)
same,Stable disease,[3],44 (37.9) n (%)
same,Estimated 12-month PFS rate,MTC at RP2D,85.2%
same,Estimated 6-month PFS rate,NSCLC at 160 mg BID,89.6%
same,Estimated 12-month PFS rate,NSCLC at 160 mg BID,67.5%
same,Estimated 12-month PFS rate,PTC at RP2D,100.0%
same,Median PFS (95% CI),"Previously treated, 20 mg QD (n = 1)",4.83 (NE-NE) months
same,Progressive disease,"Previously treated, 20 mg QD to 120 mg BID cohorts",0 (0.0) n (%)
same,DCR (95% CI),"Previously treated, 20 mg QD to 120 mg BID cohorts, 20 mg once daily",100.0 (2.5–100.0) %
same,Median TTR (95% CI),"Previously treated, 20 mg QD to 120 mg BID cohorts, 20 mg twice daily",6.73 (NE-NE) months
same,DCR (95% CI),"Previously treated, 20 mg QD to 120 mg BID cohorts, 40 mg twice daily",100.0 (15.8–100.0) %
same,DCR (95% CI),"Previously treated, 20 mg QD to 120 mg BID cohorts, 80 mg twice daily",100.0 (29.2–100.0) %
same,Median TTR (95% CI),"Previously treated, 20 mg QD to 120 mg BID cohorts, 120 mg twice daily",8.37 (1.18-NE) months
same,DCR (95% CI),[4],94.8 (85.6–98.9) %
same,Median DoR (95% CI),[4],13.0 (9.23-NE) months
same,Median PFS (95% CI),[4],15.4 (13.8-NE) months
same,Median TTR (95% CI),[4],4.56 (2.75-NE) months
same,ORR (95% CI),[4],51.7 (38.2–65.0) %
same,Partial response,[4],30 (51.7) n (%)
same,Progressive disease,[4],3 (5.2) n (%)
same,Stable disease,[4],25 (43.1) n (%)
same,DCR (95% CI),[5],100.0 (63.1–100.0) %
same,Median TTR (95% CI),[5],3.15 (0.91-NE) months
same,ORR (95% CI),[5],50.0 (15.7–84.3) %
same,Partial response,[5],4 (50.0) n (%)
same,Progressive disease,[5],0 (0.0) n (%)
same,Stable disease,[5],4 (50.0) n (%)
same,DCR (95% CI),[6],96.1 (88.9–99.2) %
same,Median DoR (95% CI),[6],19.9 (12.8-NE) months
same,Median TTR (95% CI),[6],4.63 (2.75-NE) months
same,ORR (95% CI),[6],51.3 (39.6–63.0) %
same,Partial response,[6],39 (51.3) n (%)
same,Progressive disease,[6],3 (3.9) n (%)
same,Stable disease,[6],34 (44.7) n (%)
same,Patients with progression or death,RET fusion-positive NSCLC at 160 mg BID,26.6%
same,DCR (95% CI),[7],91.3 (72.0-98.9) %
same,Median TTR (95% CI),[7],4.66 (2.75-NE) months
same,ORR (95% CI),[7],52.2 (30.6-73.2) %
same,Partial response,[7],12 (52.2) n (%)
same,Progressive disease,[7],2 (8.7) n (%)
same,Stable disease,[7],9 (39.1) n (%)
same,DCR (95% CI),[8],96.9 (89.2-99.6) %
same,Median DoR (95% CI),[8],13.0 months and 13.0 (9.26-NE) months
same,Median PFS (95% CI),[8],15.4 months and 15.4 (10.1-NE) months
same,Median TTR (95% CI),[8],2.75 (1.01-2.89) months
same,ORR (95% CI),[8],64.1 (51.1-75.7) %
same,Partial response,[8],41 (64.1) n (%)
same,Progressive disease,[8],2 (3.1) n (%)
same,Stable disease,[8],21 (32.8) n (%)
same,DCR (95% CI),[9],100.0 (59.0-100.0) %
same,ORR (95% CI),[9],42.9 (9.9-81.6) %
same,Partial response,[9],3 (42.9) n (%)
same,Progressive disease,[9],0 (0.0) n (%)
same,Stable disease,[9],4 (57.1) n (%)
same,DCR (95% CI),[10],100.0 (78.2-100.0) %
same,ORR (95% CI),[10],40.0 (16.3-67.7) %
same,Partial response,[10],6 (40.0) n (%)
same,Progressive disease,[10],0 (0.0) n (%)
same,Stable disease,[10],9 (60.0) n (%)
same,DCR (95% CI),[11],75.0 (34.9-96.8) %
same,Median TTR (95% CI),[11],2.75 (0.85-NE) months
same,ORR (95% CI),[11],75.0 (34.9-96.8) %
same,Partial response,[11],6 (75.0) n (%)
same,Progressive disease,[11],2 (25.0) n (%)
same,Stable disease,[11],0 (0.0) n (%)
same,DCR (95% CI),[12],94.4 (81.3-99.3) %
same,Median DoR (95% CI),[12],13.0 (9.20-NE) months
same,Median PFS (95% CI),[12],13.8 (10.1-NE) months
same,Median TTR (95% CI),[12],2.75 (0.98-NE) months
same,ORR (95% CI),[12],58.3 (40.8-74.5) %
same,Partial response,[12],21 (58.3) n (%)
same,Progressive disease,[12],2 (5.6) n (%)
same,Stable disease,[12],13 (36.1) n (%)
same,DCR (95% CI),[13],100.0 (87.7-100.0) %
same,Median DoR (95% CI),[13],14.5 (9.26-NE) months
same,Median PFS (95% CI),[13],15.5 (9.23-NE) months
same,Median TTR (95% CI),[13],1.11 (0.91-3.15) months
same,ORR (95% CI),[13],71.4 (51.3-86.8) %
same,Partial response,[13],20 (71.4) n (%)
same,Progressive disease,[13],0 (0.0) n (%)
same,Stable disease,[13],8 (28.6) n (%)
same,DCR (95% CI),[14],100.0 (54.1-100.0) %
same,ORR (95% CI),[14],50.0 (11.8-88.2) %
same,Partial response,[14],3 (50.0) n (%)
same,Progressive disease,[14],0 (0.0) n (%)
same,Stable disease,[14],3 (50.0) n (%)
same,DCR (95% CI),"RP2D, PTC, treatment-naïve (n = 1)",100.0 (2.5-100.0) %
